Measured values as given in US12691101B2, “Compound and method for preventing or treating of respiratory diseases comprising the same as an active ingredient” (YONSEI UNIVERSITY, UNIVERSITY - INDUSTRY FOUNDATION (UIF), priority 2019, dated 2026).
pIC50: −log10 of the molar value. Entries after “also recorded” stand apart in the source; their conditions may differ.

Assays:
PDS mRNA = assay: Real-time PCR of PDS mRNA in IL-4-treated HNE cells; assay type: cell-based, human; conditions: IL-4-treated HNE cells (F10: 120 hours after treatment)
Protocol: The total messenger RNA (mRNA) was extracted using TRIzol reagent (Invitrogen, Carlsbad, CA, USA), and was reverse-transcribed using a random hexamer primer, an oligo(dT) primer and SuperScript® III reverse transcriptase (Invitrogen). Quantitative real-time PCR was performed using StepOnePlus Real-Time PCR system (Applied Biosystems, Foster City, CA, USA) and Thunderbird SYBR qPCR mix (Tokyobo, Osaka, Japan). Thermal cycling conditions included the initial stage at 95° C. for 5 minutes, and subsequent 40 cycles at 95° C. for 10 seconds, at 55° C. for 20 seconds and at 72° C. for […].

[1] = biological target: T1, human wild-type (WT)-pendrin (Homo sapiens, UniProt O43511); assay: Pendrin-mediated Cl^−/HCO3^− exchange activity in CHO-K1 cells; assay type: cell-based; conditions: for inhibition of pendrin Cl^−/HCO3^− exchange activity: CHO-K1 cells, pretreated 10 minutes
T1 construct: expressed in transfected cells
T1 sequence (O43511 1-780): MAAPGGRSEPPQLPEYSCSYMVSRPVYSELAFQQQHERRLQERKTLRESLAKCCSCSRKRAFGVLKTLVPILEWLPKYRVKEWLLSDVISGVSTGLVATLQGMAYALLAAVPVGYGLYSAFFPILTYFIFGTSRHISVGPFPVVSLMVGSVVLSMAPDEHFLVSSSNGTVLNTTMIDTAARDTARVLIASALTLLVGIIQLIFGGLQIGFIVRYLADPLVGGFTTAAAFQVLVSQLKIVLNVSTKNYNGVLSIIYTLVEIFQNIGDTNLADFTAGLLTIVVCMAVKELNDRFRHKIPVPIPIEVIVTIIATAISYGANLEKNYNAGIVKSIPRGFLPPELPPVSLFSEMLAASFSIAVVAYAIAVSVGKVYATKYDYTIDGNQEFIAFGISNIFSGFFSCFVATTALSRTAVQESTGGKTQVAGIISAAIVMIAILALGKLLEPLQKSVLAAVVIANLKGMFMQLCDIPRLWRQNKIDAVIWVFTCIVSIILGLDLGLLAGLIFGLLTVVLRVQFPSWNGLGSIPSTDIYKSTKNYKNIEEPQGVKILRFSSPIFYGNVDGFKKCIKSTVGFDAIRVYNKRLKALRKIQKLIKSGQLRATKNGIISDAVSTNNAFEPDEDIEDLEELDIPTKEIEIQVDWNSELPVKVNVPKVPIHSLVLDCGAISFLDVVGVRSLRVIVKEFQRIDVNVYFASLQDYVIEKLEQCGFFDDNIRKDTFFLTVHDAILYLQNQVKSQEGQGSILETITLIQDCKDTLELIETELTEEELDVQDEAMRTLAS
Protocol: For measurement of Cl^−/HCO3^− exchange activity, intracellular pH (pHi) was measured in WT-pendrin expressing CHO-K1 and HNE cells using pH sensor SNARF5-AM (Molecular Probes). The cells were treated with 5 μM SNARF5-AM for 30 minutes, and then were equipped in a perfusion chamber on the stage of a reverse fluorescence microscope (Nikon, Tokyo, Japan) equipped with a cooled charge-coupled device camera (Zyla sCMOS), image acquisition and analysis software (Meta Imaging Series 7.7). The cells were perfused with a HCO3^− buffer solution containing 120 NaCl, 5 KCl, 1 MgCl2, 1 CaCl2, 10 D-glucose, 5 HEPES, and 25 NaHCO3 (pH 7.4) (mM). To measure the Cl^−/HCO3^− exchange activity, the HCO3^− buffer solution was changed to Cl^−-free HCO3^− buffer solution. When external Cl^−-free HCO3^− buffer solution is applied, the outflow of Cl^− and inflow of HCO3^− are increased by pendrin. To maintain the pH of the HCO3^− buffer solution, the solution was continuously gas treated with 95% O2 and 5% CO2. SNARF5 fluorescence was recorded at 515±10 nm of the excitation wavelength and 640±10 nm of the emission wavelength, and intracellular pH calibration was performed with a solution including 145 mM KCl, 10 mM HEPES and […] nigericin having a calibrated pH to 6.2-7.6.
When the CHO-K1 cells overexpressing WT-pendrin and iodine sensitive YFP are treated with a high concentration Cl^− solution, Cl^− moves to the cells and HCO3^− moves outside of the cells, and this change induces acidification of intracellular pH with reduction of YFP fluorescence.

pIC50 ([1]; FIG. 4(a), read-out: 50% inhibition of Cl^−/HCO3^− exchange activity)	Compound	PDS mRNA expression level (PDS mRNA)	inhibition of pendrin Cl^−/HCO3^− exchange activity [1]
~5.00	CC(C)(C)c1ccc(C2=NC(=Cc3cccs3)C(=O)O2)cc1 [F56, 2-(4-(tert-butyl)phenyl)-4-(thiophen-2-ylmethylene)oxazol-5(4H)-one]	without changes of the mRNA expression level	significantly inhibited; also recorded: strongly inhibited
–	CC(C)(C)c1ccc(C2=NC(=Cc3ccc[nH]3)C(=O)O2)cc1 [F10, 4-((1H-pyrrol-2-yl)methylene)-2-(4-(tert-butyl)phenyl)oxazol-5 (4H)-one]	did not show any effect	strongly inhibit
